{"source": "paper PMC8534050", "about": "“Discovery of a Potent and Highly Isoform-Selective Inhibitor of the Neglected Ribosomal Protein S6 Kinase Beta 2 (S6K2)” (Cancers, 2021)", "key": {"physchem": {"assay": "physchem", "details": "buffer", "quoted_text": "The reaction temperature was chosen to be 40 °C.\nGlutathione (GSH) Stability Assay\n• 0 min: 40% MeOH, 60% phosphate buffer pH 2.3;\n• 20 min: 85% MeOH, 15% phosphate buffer pH 2.3;\n• 9 min: 95% MeOH, 5% phosphate buffer pH 2.3;\n• 10 min: 95% MeOH, 5% phosphate buffer pH 2.3;"}, "S6K2": {"biological_target": "T1, S6K2 (Homo sapiens, UniProt Q9UBS0)", "T1 construct": "purchased Reaction Biology Corp", "assay": "HotSpot kinase assay (Reaction Biology)", "type": "biochemical", "details": "apparent IC50; five-point; compound 2 triplicate, ± standard deviation", "method": "(§1) The provided IC50 values were measured using the HotSpot^TM Kinase Profiling assay and conducted at Reaction Biology Corp. in their facilities in Malvern, PA, USA."}, "S6K1": {"biological_target": "T2, S6K1 (Homo sapiens, UniProt P23443)", "T2 construct": "purchased Reaction Biology Corp", "T2 sequence (P23443 whole entry)": "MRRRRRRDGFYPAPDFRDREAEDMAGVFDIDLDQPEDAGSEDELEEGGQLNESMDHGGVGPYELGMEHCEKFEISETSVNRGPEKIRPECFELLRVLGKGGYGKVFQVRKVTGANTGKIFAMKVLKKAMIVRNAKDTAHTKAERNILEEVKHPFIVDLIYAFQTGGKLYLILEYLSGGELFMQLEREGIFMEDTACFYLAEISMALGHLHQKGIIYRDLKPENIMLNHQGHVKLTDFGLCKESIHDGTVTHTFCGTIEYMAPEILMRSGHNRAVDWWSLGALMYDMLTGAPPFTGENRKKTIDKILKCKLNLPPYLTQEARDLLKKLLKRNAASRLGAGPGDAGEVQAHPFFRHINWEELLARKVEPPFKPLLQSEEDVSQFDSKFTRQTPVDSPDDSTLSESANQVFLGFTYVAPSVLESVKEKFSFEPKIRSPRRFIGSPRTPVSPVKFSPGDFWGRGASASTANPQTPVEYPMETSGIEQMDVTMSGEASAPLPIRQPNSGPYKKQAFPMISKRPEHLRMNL", "assay": "HotSpot kinase assay (Reaction Biology)", "type": "biochemical", "method": "as §1"}, "TTK": {"biological_target": "T3, TTK (Homo sapiens, UniProt P33981)", "T3 construct": "purchased Reaction Biology Corp", "assay": "HotSpot kinase assay (Reaction Biology)", "type": "biochemical", "details": "five-point singlicate, max 5 μM", "method": "as §1"}, "MAPKAPK2": {"biological_target": "T4, MAPKAPK2 (Homo sapiens, UniProt P49137)", "T4 construct": "purchased in-house DSF (thermal shift) panel per Fedorov et al; IC50 follow-up at Reaction Biology Corp", "T4 sequence (P49137 whole entry)": "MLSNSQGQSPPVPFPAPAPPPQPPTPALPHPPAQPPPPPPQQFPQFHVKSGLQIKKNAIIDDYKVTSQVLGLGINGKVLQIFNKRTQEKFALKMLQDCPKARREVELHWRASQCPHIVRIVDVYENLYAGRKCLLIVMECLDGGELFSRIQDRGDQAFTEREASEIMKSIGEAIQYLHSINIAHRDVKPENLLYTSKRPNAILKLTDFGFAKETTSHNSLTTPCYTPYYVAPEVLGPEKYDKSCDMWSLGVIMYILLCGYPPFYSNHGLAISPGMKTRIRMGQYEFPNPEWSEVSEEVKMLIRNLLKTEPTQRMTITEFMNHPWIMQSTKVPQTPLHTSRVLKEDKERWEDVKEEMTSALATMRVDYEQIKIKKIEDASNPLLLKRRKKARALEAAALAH", "assay": "HotSpot kinase assay (Reaction Biology)", "type": "biochemical", "details": "five-point singlicate, max 5 μM", "method": "as §1"}, "FGFR4": {"biological_target": "T5, FGFR4 (Homo sapiens, UniProt P22455)", "T5 construct": "purchased Reaction Biology Corp", "T5 sequence (P22455 22-802)": "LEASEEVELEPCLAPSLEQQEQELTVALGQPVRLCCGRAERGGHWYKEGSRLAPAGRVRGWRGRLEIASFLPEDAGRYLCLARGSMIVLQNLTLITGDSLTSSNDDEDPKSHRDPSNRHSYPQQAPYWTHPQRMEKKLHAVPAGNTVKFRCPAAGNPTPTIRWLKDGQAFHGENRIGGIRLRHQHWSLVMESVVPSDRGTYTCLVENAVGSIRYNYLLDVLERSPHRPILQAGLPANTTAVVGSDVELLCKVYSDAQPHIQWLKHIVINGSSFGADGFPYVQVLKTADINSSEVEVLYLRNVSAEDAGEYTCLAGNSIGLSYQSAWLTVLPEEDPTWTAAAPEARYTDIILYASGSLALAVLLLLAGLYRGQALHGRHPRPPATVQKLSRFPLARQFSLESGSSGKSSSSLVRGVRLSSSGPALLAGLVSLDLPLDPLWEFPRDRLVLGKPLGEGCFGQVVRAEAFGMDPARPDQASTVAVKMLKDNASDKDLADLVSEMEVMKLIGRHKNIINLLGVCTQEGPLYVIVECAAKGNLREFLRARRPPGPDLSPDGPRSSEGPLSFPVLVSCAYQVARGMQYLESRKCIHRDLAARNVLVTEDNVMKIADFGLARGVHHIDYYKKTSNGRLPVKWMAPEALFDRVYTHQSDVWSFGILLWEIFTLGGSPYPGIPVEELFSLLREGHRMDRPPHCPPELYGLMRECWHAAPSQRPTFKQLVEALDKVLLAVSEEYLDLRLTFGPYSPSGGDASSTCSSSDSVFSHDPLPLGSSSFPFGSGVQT", "assay": "HotSpot kinase assay (Reaction Biology)", "type": "biochemical", "details": "five-point singlicate", "method": "as §1"}, "MAPKAPK3": {"biological_target": "T6, MAPKAPK3 (Homo sapiens, UniProt Q16644)", "T6 construct": "purchased Reaction Biology Corp", "assay": "HotSpot kinase assay (Reaction Biology)", "type": "biochemical", "details": "five-point singlicate, max 5 μM", "method": "as §1"}, "RPS6K5": {"biological_target": "T7, RPS6K5 (Homo sapiens, UniProt O75582)", "T7 construct": "purchased in-house DSF (thermal shift) panel per Fedorov et al", "assay": "DSF thermal shift assay", "type": "binding", "details": "RPS6K5; inhibitor 10 μM, protein 2 μM; read-out: ΔTm", "method": "(§2) Differences in the melting temperature (ΔTm) were measured as described by Fedorov et al.. Purified proteins were buffered in 25 mM HEPES (pH 7.5), 500 mM NaCl and were assayed in a 384-well plate with a final protein concentration of 2 μM in 10 μL assay volume. Inhibitors were added to a final concentration of 10 μM using an ECHO 550 acoustic dispenser (Labcyte, San José, CA, USA). As a fluorescence probe, SYPRO-Orange (Molecular Probes, Eugene, OR, USA) was added in a 1:5000 dilution. Filters for excitation and emission were set to 465 nm and 590 nm, respectively. The temperature was increased from 25 °C with 3 °C/min to a final temperature of 95 °C, while scanning, using the QuantStudio5 (Applied Biosystems, Waltham, MA, USA). Data were analyzed through Boltzmann equation in the Protein Thermal Shift software (Applied Biosystems, Waltham, MA, USA). Samples were measured in technical duplicates."}, "NEK2": {"biological_target": "T8, NEK2 (Homo sapiens, UniProt P51955)", "T8 construct": "purchased in-house DSF (thermal shift) panel per Fedorov et al", "assay": "DSF thermal shift assay", "type": "binding", "details": "NEK2; inhibitor 10 μM, protein 2 μM; read-out: ΔTm", "method": "as §2"}, "MERTK": {"biological_target": "T9, MERTK (Homo sapiens, UniProt Q12866)", "T9 construct": "purchased in-house DSF (thermal shift) panel per Fedorov et al", "assay": "DSF thermal shift assay", "type": "binding", "details": "MERTK; inhibitor 10 μM, protein 2 μM; read-out: ΔTm", "method": "as §2"}, "MAPK13": {"biological_target": "T10, MAPK13 (Homo sapiens, UniProt O15264)", "T10 construct": "purchased in-house DSF (thermal shift) panel per Fedorov et al", "T10 sequence (O15264 whole entry)": "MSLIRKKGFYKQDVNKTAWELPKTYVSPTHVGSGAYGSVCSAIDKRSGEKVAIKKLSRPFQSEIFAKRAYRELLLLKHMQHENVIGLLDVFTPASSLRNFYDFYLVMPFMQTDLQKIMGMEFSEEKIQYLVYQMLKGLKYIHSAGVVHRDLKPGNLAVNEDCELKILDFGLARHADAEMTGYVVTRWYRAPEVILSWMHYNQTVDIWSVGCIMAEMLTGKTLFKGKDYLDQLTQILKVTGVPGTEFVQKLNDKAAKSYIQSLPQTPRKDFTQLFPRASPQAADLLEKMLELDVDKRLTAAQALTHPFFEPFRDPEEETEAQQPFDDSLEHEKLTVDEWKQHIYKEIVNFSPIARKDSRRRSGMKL", "assay": "DSF thermal shift assay", "type": "binding", "details": "MAPK13; inhibitor 10 μM, protein 2 μM; read-out: ΔTm", "method": "as §2"}, "DAPK1": {"biological_target": "T11, DAPK1 (Homo sapiens, UniProt P53355)", "T11 construct": "purchased in-house DSF (thermal shift) panel per Fedorov et al", "assay": "DSF thermal shift assay", "type": "binding", "details": "DAPK1; inhibitor 10 μM, protein 2 μM; read-out: ΔTm", "method": "as §2"}, "STK3": {"biological_target": "T12, STK3 (Homo sapiens, UniProt Q13188)", "T12 construct": "purchased in-house DSF (thermal shift) panel per Fedorov et al", "assay": "DSF thermal shift assay", "type": "binding", "details": "STK3; inhibitor 10 μM, protein 2 μM; read-out: ΔTm", "method": "as §2"}, "EPHB3": {"biological_target": "T13, EPHB3 (Homo sapiens, UniProt P54753)", "T13 construct": "purchased in-house DSF (thermal shift) panel per Fedorov et al", "T13 sequence (P54753 34-998)": "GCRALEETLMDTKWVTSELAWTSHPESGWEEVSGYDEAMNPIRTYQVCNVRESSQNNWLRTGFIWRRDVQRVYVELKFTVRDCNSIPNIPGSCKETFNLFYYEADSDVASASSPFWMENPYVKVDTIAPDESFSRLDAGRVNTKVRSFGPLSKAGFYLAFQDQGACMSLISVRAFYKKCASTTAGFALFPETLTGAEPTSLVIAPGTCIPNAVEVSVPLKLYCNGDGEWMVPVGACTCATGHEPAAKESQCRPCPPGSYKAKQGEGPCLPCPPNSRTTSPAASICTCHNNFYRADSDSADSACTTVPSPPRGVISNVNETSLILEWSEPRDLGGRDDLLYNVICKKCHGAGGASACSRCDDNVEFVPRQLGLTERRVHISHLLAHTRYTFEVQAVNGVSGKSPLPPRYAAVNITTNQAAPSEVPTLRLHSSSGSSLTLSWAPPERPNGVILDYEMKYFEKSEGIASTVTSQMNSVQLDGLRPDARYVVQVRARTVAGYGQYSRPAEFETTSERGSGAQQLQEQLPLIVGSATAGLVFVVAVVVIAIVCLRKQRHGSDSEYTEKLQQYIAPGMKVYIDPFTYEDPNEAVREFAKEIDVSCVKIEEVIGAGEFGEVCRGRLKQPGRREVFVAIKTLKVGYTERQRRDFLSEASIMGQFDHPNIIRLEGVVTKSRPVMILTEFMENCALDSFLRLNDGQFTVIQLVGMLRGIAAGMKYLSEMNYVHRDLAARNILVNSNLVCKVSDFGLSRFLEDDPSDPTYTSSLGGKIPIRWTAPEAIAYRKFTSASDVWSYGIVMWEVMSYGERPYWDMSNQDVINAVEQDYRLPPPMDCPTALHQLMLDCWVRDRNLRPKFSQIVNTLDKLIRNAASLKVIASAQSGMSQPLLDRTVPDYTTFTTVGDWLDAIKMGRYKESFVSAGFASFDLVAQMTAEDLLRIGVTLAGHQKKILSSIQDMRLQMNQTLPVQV", "assay": "DSF thermal shift assay", "type": "binding", "details": "EPHB3; inhibitor 10 μM, protein 2 μM; read-out: ΔTm", "method": "as §2"}, "WNK1": {"biological_target": "T14, WNK1 (Homo sapiens, UniProt Q9H4A3)", "T14 construct": "purchased in-house DSF (thermal shift) panel per Fedorov et al", "assay": "DSF thermal shift assay", "type": "binding", "details": "WNK1; inhibitor 10 μM, protein 2 μM; read-out: ΔTm", "method": "as §2"}, "MAPK6": {"biological_target": "T15, MAPK6 (Homo sapiens, UniProt Q16659)", "T15 construct": "purchased in-house DSF (thermal shift) panel per Fedorov et al", "assay": "DSF thermal shift assay", "type": "binding", "details": "MAPK6; inhibitor 10 μM, protein 2 μM; read-out: ΔTm", "method": "as §2"}, "EPHA7": {"biological_target": "T16, EPHA7 (Homo sapiens, UniProt Q15375)", "T16 construct": "purchased in-house DSF (thermal shift) panel per Fedorov et al", "assay": "DSF thermal shift assay", "type": "binding", "details": "EPHA7; inhibitor 10 μM, protein 2 μM; read-out: ΔTm", "method": "as §2"}, "CDC42BPA": {"biological_target": "T17, CDC42BPA (Homo sapiens, UniProt Q5VT25)", "T17 construct": "purchased in-house DSF (thermal shift) panel per Fedorov et al", "T17 sequence (Q5VT25 whole entry)": "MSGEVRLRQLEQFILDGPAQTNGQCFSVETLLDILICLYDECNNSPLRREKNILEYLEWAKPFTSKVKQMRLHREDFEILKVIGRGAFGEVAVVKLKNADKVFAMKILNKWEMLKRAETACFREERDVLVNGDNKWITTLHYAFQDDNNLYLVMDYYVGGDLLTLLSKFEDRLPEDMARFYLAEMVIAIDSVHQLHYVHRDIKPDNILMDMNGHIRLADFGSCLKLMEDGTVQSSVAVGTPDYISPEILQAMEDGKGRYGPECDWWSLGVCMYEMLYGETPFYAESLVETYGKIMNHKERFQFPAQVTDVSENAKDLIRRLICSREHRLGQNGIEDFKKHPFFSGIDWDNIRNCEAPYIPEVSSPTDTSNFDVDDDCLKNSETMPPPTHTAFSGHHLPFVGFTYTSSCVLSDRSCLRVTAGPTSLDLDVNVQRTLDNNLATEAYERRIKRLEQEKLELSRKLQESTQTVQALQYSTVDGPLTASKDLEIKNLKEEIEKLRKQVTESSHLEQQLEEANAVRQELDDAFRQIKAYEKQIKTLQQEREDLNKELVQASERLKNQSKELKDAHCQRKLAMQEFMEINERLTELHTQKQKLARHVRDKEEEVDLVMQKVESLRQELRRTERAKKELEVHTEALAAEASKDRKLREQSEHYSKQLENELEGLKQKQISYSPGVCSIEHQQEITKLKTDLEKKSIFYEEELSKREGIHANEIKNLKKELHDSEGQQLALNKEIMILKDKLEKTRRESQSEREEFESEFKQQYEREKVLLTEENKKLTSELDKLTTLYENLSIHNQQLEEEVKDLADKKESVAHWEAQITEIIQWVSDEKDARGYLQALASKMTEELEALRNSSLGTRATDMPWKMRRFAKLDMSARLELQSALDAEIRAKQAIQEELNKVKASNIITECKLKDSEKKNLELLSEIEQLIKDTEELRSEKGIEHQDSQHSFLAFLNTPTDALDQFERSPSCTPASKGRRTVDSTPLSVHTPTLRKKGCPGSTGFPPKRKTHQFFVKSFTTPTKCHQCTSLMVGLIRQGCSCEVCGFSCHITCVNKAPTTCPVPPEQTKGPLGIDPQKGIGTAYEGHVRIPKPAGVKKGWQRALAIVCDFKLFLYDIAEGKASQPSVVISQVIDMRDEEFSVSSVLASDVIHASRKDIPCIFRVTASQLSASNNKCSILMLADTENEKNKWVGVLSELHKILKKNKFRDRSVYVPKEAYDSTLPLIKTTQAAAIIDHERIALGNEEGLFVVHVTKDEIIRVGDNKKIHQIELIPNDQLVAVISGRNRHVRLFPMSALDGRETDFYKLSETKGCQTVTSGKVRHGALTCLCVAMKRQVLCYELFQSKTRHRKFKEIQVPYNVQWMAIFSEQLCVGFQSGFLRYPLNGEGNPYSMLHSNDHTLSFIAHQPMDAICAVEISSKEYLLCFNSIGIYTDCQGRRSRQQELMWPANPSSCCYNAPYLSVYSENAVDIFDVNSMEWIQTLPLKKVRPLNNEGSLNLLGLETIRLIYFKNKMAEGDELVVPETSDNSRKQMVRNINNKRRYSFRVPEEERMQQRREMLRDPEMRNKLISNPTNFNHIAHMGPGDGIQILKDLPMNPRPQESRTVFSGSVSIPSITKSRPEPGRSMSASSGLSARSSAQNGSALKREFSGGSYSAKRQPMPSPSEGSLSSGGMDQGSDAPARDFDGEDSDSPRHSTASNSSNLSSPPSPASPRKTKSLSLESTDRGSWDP", "assay": "DSF thermal shift assay", "type": "binding", "details": "CDC42BPA; inhibitor 10 μM, protein 2 μM; read-out: ΔTm", "method": "as §2"}, "STK10": {"biological_target": "T18, STK10 (Homo sapiens, UniProt O94804)", "T18 construct": "purchased in-house DSF (thermal shift) panel per Fedorov et al", "assay": "DSF thermal shift assay", "type": "binding", "details": "STK10; inhibitor 10 μM, protein 2 μM; read-out: ΔTm", "method": "as §2"}}, "data": [{"smiles": "CCc1cnc(Nc2nc(Cl)ccc2[N+](=O)[O-])nc1N1CCN(Cc2nc3cc(C(F)(F)F)ccc3[nH]2)CC1", "note": "[Compound 2]", "values": [{"measurement": "half-life at […]", "setting": "physchem", "value": 55, "unit": "h"}, {"measurement": "IC50", "setting": "S6K2", "value": "22 ± 1.6", "unit": "nM"}, {"measurement": "IC50", "setting": "S6K1; five-point singlicate, max 5 μM", "value": "> 5000", "unit": "nM"}, {"measurement": "activity for S6K1", "setting": "S6K1; maximum tested compound concentration of 5 μM", "value": "inactive"}, {"measurement": "IC50", "setting": "TTK", "value": "> 5000", "unit": "nM"}, {"measurement": "IC50", "setting": "MAPKAPK2", "value": "> 5000", "unit": "nM"}, {"measurement": "IC50", "setting": "FGFR4", "value": 216, "unit": "nM"}, {"measurement": "IC50", "setting": "MAPKAPK3", "value": "> 5000", "unit": "nM"}, {"measurement": "ΔTm at 10 µM", "setting": "RPS6K5", "value": 1.5, "unit": "°C"}, {"measurement": "ΔTm at 10 µM", "setting": "NEK2", "value": 0.1, "unit": "°C"}, {"measurement": "ΔTm at 10 µM", "setting": "MERTK", "value": -0.1, "unit": "°C"}, {"measurement": "ΔTm at 10 µM", "setting": "MAPK13", "value": -0.6, "unit": "°C"}, {"measurement": "ΔTm at 10 µM", "setting": "DAPK1", "value": -0.5, "unit": "°C"}, {"measurement": "ΔTm at 10 µM", "setting": "STK3", "value": -0.2, "unit": "°C"}, {"measurement": "ΔTm at 10 µM", "setting": "EPHB3", "value": -0.9, "unit": "°C"}, {"measurement": "ΔTm at 10 µM", "setting": "WNK1", "value": -0.9, "unit": "°C"}, {"measurement": "ΔTm at 10 µM", "setting": "MAPK6", "value": 0.2, "unit": "°C"}, {"measurement": "ΔTm at 10 µM", "setting": "EPHA7", "value": 0.5, "unit": "°C"}, {"measurement": "ΔTm at 10 µM", "setting": "CDC42BPA", "value": 0.3, "unit": "°C"}, {"measurement": "ΔTm at 10 µM", "setting": "STK10", "value": 1.8, "unit": "°C"}]}]}
